According to PubChem BioAssay (NCI):
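Assay format: 96-well plates, 48-hour exposure. Abbreviation: GI50, concentration required for 50% inhibition of growth. TGI marks complete inhibition of growth.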

Experiments:
Assay in all cases: growth of human tumour cells (NCI), 48 h
[1] = test system: NCI/ADR-RES ovarian
[2] = test system: T-47D breast
[3] = test system: SNB-75 CNS
[4] = test system: SK-OV-3 ovarian
[5] = test system: K-562 leukemia
[6] = test system: EKVX NSCLC
[7] = test system: HS 578T breast
[8] = test system: SF-539 CNS
[9] = test system: SK-MEL-5 melanoma
[10] = test system: HOP-92 NSCLC
[11] = test system: HCC-2998 colon
[12] = test system: A549 NSCLC
[13] = test system: NCI-H460 lung
[14] = test system: OVCAR-5 ovarian
[15] = test system: RXF 393 renal
[16] = test system: BT-549 breast
[17] = test system: RPMI-8226 leukemia
[18] = test system: ACHN renal
[19] = test system: SF-295 CNS
[20] = test system: A498 renal
[21] = test system: IGROV1 ovarian
[22] = test system: SK-MEL-28 melanoma
[23] = test system: MALME-3M melanoma
[24] = test system: HL-60(TB) leukemia
[25] = test system: SF-268 CNS
[26] = test system: DU-145 prostate
[27] = test system: SR leukemia
[28] = test system: COLO 205 colon
[29] = test system: NCI-H23 lung
[30] = test system: HCT-15 colon
[31] = test system: HOP-62 NSCLC
[32] = test system: UO-31 renal
[33] = test system: CCRF-CEM leukemia
[34] = test system: MDA-MB-435
[35] = test system: HCT-116 colon
[36] = test system: MCF7 breast
[37] = test system: UACC-257 melanoma
[38] = test system: TK-10 renal
[39] = test system: NCI-H226 lung
[40] = test system: OVCAR-3 ovarian
[41] = test system: U251 CNS
[42] = test system: SNB-19 CNS
[43] = test system: HT29 colon
[44] = test system: SW-620 colon
[45] = test system: NCI-H522 lung
[46] = test system: 786-0 renal
[47] = test system: PC-3 prostate
[48] = test system: OVCAR-4 ovarian
[49] = test system: SK-MEL-2 melanoma
[50] = test system: MOLT-4 leukemia
[51] = test system: KM12 colon
[52] = test system: SN12C renal
[53] = test system: UACC-62 melanoma
[54] = test system: MDA-MB-231 breast
[55] = test system: LOX IMVI melanoma
[56] = test system: CAKI-1 renal
[57] = test system: OVCAR-8 ovarian

NC(N)=Nc1ccc(Nc2cccc(Oc3ccc(Cl)c(C(F)(F)F)c3)c2)cn1
GI50 [1]: 15.6 µM
TGI [1]: > 100 µM
GI50 [2]: 1.62 µM
TGI [2]: 4.55 µM
GI50 [3]: 1.6 µM
TGI [3]: 3.33 µM
GI50 [4]: 3.5 µM
TGI [4]: 13.2 µM
GI50 [5]: 2.11 µM
TGI [5]: > 100 µM

CCN(CC)CCOc1ccc(C(=C(C)Cc2ccc(OC)cc2)c2ccc(OCCN(CC)CC)cc2)cc1
GI50 [6]: 3.84 µM
TGI [6]: 9.13 µM
GI50 [7]: 4.34 µM
TGI [7]: 11.5 µM
GI50 [8]: 3.7 µM
TGI [8]: 7.37 µM
GI50 [9]: 4 µM
TGI [9]: 7.47 µM
GI50 [10]: 1.07 µM
TGI [10]: 8.98 µM
GI50 [11]: 3.57 µM
TGI [11]: 6.97 µM
GI50 [1]: 4.24 µM
TGI [1]: 8.74 µM
GI50 [12]: 4.52 µM
TGI [12]: 10.6 µM
GI50 [13]: 3.92 µM
TGI [13]: 7.8 µM
GI50 [14]: 3.68 µM
TGI [14]: 7.32 µM
GI50 [15]: 1.42 µM
TGI [15]: 5.11 µM
GI50 [16]: 3.84 µM
TGI [16]: 7.48 µM
GI50 [17]: 3.27 µM
TGI [17]: 8.39 µM
GI50 [2]: 4.06 µM
TGI [2]: 10.9 µM
GI50 [18]: 4.46 µM
TGI [18]: 8.67 µM
GI50 [19]: 4.36 µM
TGI [19]: 8.49 µM
GI50 [20]: 3.67 µM
TGI [20]: 16 µM
GI50 [21]: 4.18 µM
TGI [21]: 8.31 µM
GI50 [22]: 3.72 µM
TGI [22]: 7.21 µM
GI50 [23]: 6.12 µM
TGI [23]: 10.5 µM
GI50 [24]: 3.46 µM
TGI [24]: 7.77 µM
GI50 [25]: 4.22 µM
TGI [25]: 9.16 µM
GI50 [26]: 4.59 µM
TGI [26]: 10.6 µM
GI50 [27]: 0.805 µM
TGI [27]: 3.1 µM
GI50 [28]: 4.45 µM
TGI [28]: 10.3 µM
GI50 [29]: 4.59 µM
TGI [29]: 10.5 µM
GI50 [30]: 2.65 µM
TGI [30]: 6.25 µM
GI50 [31]: 4.7 µM
TGI [31]: 11.2 µM
GI50 [32]: 3.42 µM
TGI [32]: 6.82 µM
GI50 [33]: 2.65 µM
TGI [33]: 7.2 µM
GI50 [34]: 3.96 µM
TGI [34]: 7.48 µM
GI50 [35]: 2.95 µM
TGI [35]: 6.51 µM
GI50 [36]: 2.86 µM
TGI [36]: 6.51 µM
GI50 [37]: 4.62 µM
TGI [37]: 9.29 µM
GI50 [38]: 3.86 µM
TGI [38]: 8.67 µM
GI50 [39]: 4.37 µM
TGI [39]: 11.3 µM
GI50 [40]: 3.2 µM
TGI [40]: 7.5 µM
GI50 [41]: 3.99 µM
TGI [41]: 8.34 µM
GI50 [42]: 4.44 µM
TGI [42]: 8.84 µM
GI50 [43]: 2.83 µM
TGI [43]: 7.8 µM
GI50 [3]: 13.4 µM
TGI [3]: 25 µM
GI50 [44]: 3.75 µM
TGI [44]: 7.71 µM
GI50 [45]: 4.56 µM
TGI [45]: 9.86 µM
GI50 [4]: 5.06 µM
TGI [4]: 10.5 µM
GI50 [46]: 3.42 µM
TGI [46]: 7.04 µM
GI50 [47]: 3.88 µM
TGI [47]: 8.15 µM
GI50 [5]: 0.609 µM
TGI [5]: 2.08 µM
GI50 [48]: 4.48 µM
TGI [48]: 10.7 µM
GI50 [49]: 4.8 µM
TGI [49]: 9.83 µM
GI50 [50]: 3.13 µM
TGI [50]: 7.55 µM
GI50 [51]: 3.66 µM
TGI [51]: 7.57 µM
GI50 [52]: 3.55 µM
TGI [52]: 7.19 µM
GI50 [53]: 4.59 µM
TGI [53]: 8.87 µM
GI50 [54]: 3.93 µM
TGI [54]: 7.91 µM
GI50 [55]: 3.04 µM
TGI [55]: 6.44 µM
GI50 [56]: 3.63 µM
TGI [56]: 7.38 µM
GI50 [57]: 6.08 µM
TGI [57]: 15.2 µM
